This passage reports IC50 results from US8987314B2, “Amide, urea or sulfone amide linked benzothiazole inhibitors of endothelial lipase” (Bristol-Myers Squibb Company, priority 2012, dated 2015).

The term IC50 denotes the midpoint of a concentration-inhibition curve.

One experiment addresses Endothelial lipase (EL) (Homo sapiens (Human), UniProt Q9Y5X9). Kind of experiment: EL assay: endothelial lipase activity with fluorescent substrate A10070 in DMPG vesicles. In kind it is biochemical. The method in brief:
(§1)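 Compounds were preincubated with enzyme for 30 min at 37° C before FRET-substrate vesicles (A10070 in DMPG, 0.11 mole fraction) were added. Reaction rates were obtained from the 300–900 sec slope of fluorescence at 490/530 nm.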

A further experiment has as its target hepatic lipase (HL) (Homo sapiens (Human), UniProt P11150). The experiment can be described thus: HL assay: hepatic lipase activity with fluorescent substrate A10070 in DMPG vesicles. The format is biochemical. The method in brief:
as §1

hepatic lipase (HL), sequence (P11150 23-499, species assumed): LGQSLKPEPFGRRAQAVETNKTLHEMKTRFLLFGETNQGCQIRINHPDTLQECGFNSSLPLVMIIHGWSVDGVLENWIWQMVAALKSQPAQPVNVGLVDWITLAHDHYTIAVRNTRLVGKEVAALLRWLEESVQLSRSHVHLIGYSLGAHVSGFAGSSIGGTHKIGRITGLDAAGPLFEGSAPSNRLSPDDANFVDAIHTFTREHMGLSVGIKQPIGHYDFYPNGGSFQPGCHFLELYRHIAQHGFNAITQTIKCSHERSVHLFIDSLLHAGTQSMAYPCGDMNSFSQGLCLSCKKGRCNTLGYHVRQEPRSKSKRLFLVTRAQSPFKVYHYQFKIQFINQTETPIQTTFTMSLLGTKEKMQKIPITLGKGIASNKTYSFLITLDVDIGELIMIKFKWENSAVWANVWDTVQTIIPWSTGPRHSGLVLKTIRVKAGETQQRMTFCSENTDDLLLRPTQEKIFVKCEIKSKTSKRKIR
Endothelial lipase (EL), sequence (Q9Y5X9 21-500): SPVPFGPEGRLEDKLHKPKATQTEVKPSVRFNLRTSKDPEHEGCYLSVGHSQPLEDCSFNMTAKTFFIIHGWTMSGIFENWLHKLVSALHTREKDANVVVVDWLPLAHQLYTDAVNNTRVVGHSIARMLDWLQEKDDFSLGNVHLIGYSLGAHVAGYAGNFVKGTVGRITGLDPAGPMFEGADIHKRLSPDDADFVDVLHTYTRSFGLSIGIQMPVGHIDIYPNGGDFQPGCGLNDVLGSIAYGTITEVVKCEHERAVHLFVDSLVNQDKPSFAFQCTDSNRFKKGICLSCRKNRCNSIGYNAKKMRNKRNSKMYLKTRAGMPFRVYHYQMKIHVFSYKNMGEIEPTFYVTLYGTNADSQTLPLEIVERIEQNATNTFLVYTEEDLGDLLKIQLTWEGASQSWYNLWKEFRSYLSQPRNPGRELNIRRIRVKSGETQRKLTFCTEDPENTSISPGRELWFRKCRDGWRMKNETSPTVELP

Consider `COCCS(=O)(=O)C(C(=O)NCc1cc(C)no1)c1nc2ccc(-c3ccccc3)cc2s1` (centres unmarked) [Example B234, 2-(2-methoxyethane-sulfonyl)-N-[(3-methyl-1,2-oxazol-5-yl)methyl]-2-(6-phenyl-1,3-benzothiazol-2-yl)a-cetamide], for which the IC50 against Endothelial lipase (EL) stood at 4.9 nM; at hepatic lipase (HL) it was 0.5 nM.

With `Cn1nccc1-c1ccc2nc(C(C(=O)NCCS(N)(=O)=O)S(C)(=O)=O)sc2c1` (centres unmarked) [Example B235, 2-methanesulfonyl-2-[6-(1-methyl-1H-pyrazol-5-yl)-1,3-benzothiazol-2-yl]-N-(2-sulfamoylethyl)a-cetamide], the IC50 was 5.1 nM against Endothelial lipase (EL) and 3050 nM against hepatic lipase (HL).

As to `CC(=O)Nc1ccc(-c2ccc3nc(C(C(=O)NCCS(N)(=O)=O)S(=O)(=O)CCC(F)(F)F)sc3c2)cc1` (centres unmarked) [Example B236, 2-[6-(4-acetamidophenyl)-1,3-benzothiazol-2-yl]-N-(2-sulfamoylethyl)-2-(3,3,3-trifluoropropane-sulfonyl)acetamide], the IC50 on Endothelial lipase (EL) stood at 0.8 nM; against hepatic lipase (HL) it was 55.3 nM.

With `NS(=O)(=O)CCNC(=O)C(c1nc2ccc(-c3ccc(S(=O)(=O)NCCO)cc3)cc2s1)S(=O)(=O)Cc1ccc(F)cc1` (centres unmarked) [Example B238, 2-[(4-fluorophenyl)methane-sulfonyl]-2-(6-{4-[(2-hydroxyethyl)sulfa-moyl]phenyl}-1,3-benzothiazol-2-yl)-N-(2-sulfamoylethyl)a-cetamide], the IC50 against Endothelial lipase (EL) came to 9.8 nM; on hepatic lipase (HL) it was 234 nM.

For the compound `COCc1ccc(-c2ccc3nc(C(C(=O)NCCS(N)(=O)=O)S(=O)(=O)CCC(F)(F)F)sc3c2)cc1` (centres unmarked) [Example B239, 2-{6-[4-(methoxymeth-yl)phenyl]-1,3-benzothiazol-2-yl}-N-(2-sulfamoyl-ethyl)-2-(3,3,3-trifluoro-propanesulfonyl)acetamide], the IC50 worked out at 9.4 nM on Endothelial lipase (EL) and 7.3 nM against hepatic lipase (HL).

For the compound `NS(=O)(=O)CCNC(=O)C(c1nc2ccc(-c3ccc(CCO)cc3)cc2s1)S(=O)(=O)Cc1ccc(F)cc1` (centres unmarked) [Example B240, 2-[(4-fluorophenyl)methane-sulfonyl]-2-{6-[4-(2-hydroxyethyl)phenyl]-1,3-benzothiazol-2-yl}-N-(2-sulfamoylethyl)a-cetamide], the IC50 at Endothelial lipase (EL) came to 25.7 nM; against hepatic lipase (HL) it was 76.6 nM.

For the compound `CC(C)(O)CNC(=O)c1ccc(-c2ccc3nc(C(C(=O)NCCS(N)(=O)=O)S(C)(=O)=O)sc3c2)cc1` (centres unmarked) [Example B241, N-(2-hydroxy-2-methyl-propyl)-4-(2-{methane-sulfonyl[(2-sulfamoyl-ethyl)carbamoyl]methyl}-1,3-benzothiazol-6-yl)ben-zamide], the IC50 at Endothelial lipase (EL) is 6.4 nM; at hepatic lipase (HL), 607 nM.

On to `CC(C)(O)CNC(=O)c1ccc(-c2ccc3nc(C(C(=O)NCCS(N)(=O)=O)S(=O)(=O)Cc4ccc(F)cc4)sc3c2)cc1` (centres unmarked) [Example B242, 4-{2-[(4-fluorophenyl)meth-anesulfonyl[(2-sulfa-moylethyl)carbamoyl]meth-yl]-1,3-benzothiazol-6-yl}-N-(2-hydroxy-2-methylpropyl)benzamide], for which the IC50 against Endothelial lipase (EL) amounted to 2.7 nM; at hepatic lipase (HL), 109 nM.

For `NS(=O)(=O)CCNC(=O)C(c1nc2ccc(-c3cccc(Cl)c3)cc2s1)S(=O)(=O)Cc1ccc(F)cc1` (centres unmarked) [Example B243, 2-[6-(3-chlorophenyl)-1,3-benzothiazol-2-yl]-2-[(4-fluorophenyl)methanesulfon-yl]-N-(2-sulfamoylethyl)a-cetamide], the values for the IC50 against Endothelial lipase (EL) and at hepatic lipase (HL) were 4.8 nM and 2.4 nM, respectively.

With `COC(C)(C)CNC(=O)c1ccc(-c2ccc3nc(C(C(=O)NCCS(N)(=O)=O)S(=O)(=O)CC4CC4)sc3c2)cc1` (centres unmarked) [Example B244, 4-(2-{cyclopropylmethane-sulfonyl[(2-sulfamoyl-ethyl)carbamoyl]methyl}-1,3-benzothiazol-6-yl)-N-(2-methoxy-2-methyl-propyl)benzamide], the IC50 at Endothelial lipase (EL) came to 0.9 nM; on hepatic lipase (HL), 12 nM.
